According to article PMC5034043 (The Journal of Biological Chemistry, 2016):
Where two headings read alike, the source gives them in different places.

Tested on: T1, synaptosomal proteome
T1 construct: from tissue; host or cells: brain synaptosomes of male C57/B6 mice
Type: binding, mouse
Method: Synaptosomes were resuspended to 1 mg of protein/ml in HEPES buffer medium (in mM: 140 NaCl, 5 KCl, 5 NaHCO3, 1.2 NaH2PO4, 1 MgCl2, 10 glucose, and 10 HEPES (pH 7.4)). […] The samples were allowed to equilibrate for 5 min before being transferred to a parafilm-sealed 1-mm path length quartz cuvette. The sample was then irradiated for 20 min at a peak bandwidth of 350 nm (Rayonet RPR-3500 lamp) ∼6 cm from the light source. Non-irradiated samples were left in the dark at ambient temperature (22–25 °C) for 20 min. All remaining procedures were conducted with restricted light exposure.
To 750 μg of photolabeled or control synaptosome samples, 40 μl of 10% SDS and 2 μl of 5 mM DTT in water were added. Samples were then vortexed, heated for 10 min at 65 °C, and then briefly cooled. Final concentrations of 150 μM azide-biotin (Click Chemistry Tools), 2 mM tris(3-hydroxypropyltriazolylmethyl)amine (Sigma), 1 mM ascorbic acid (Sigma), and 1 mM CuSO4·5H2O (Sigma) were added to each sample and vortexed vigorously. The samples were left in the dark at ambient temperature (22–25 °C) for 1 h with mild agitation. Directly to each sample 4× volume chilled methanol, 1.5× chilled chloroform, and 3× chilled double distilled H2O were added. Samples were vortexed vigorously and centrifuged at 1,400 × g for 30 min at 4 °C. Both liquid layers were carefully removed, and the protein pellet was washed with 2 ml of 1:1 (v/v) chilled methanol/chloroform. Samples were centrifuged at 3,500 × g for 30 min at 4 °C. Protein pellets were briefly air-dried before further processing.
750 μg of biotin-conjugated protein sample was resuspended in 500 μl of 25 mM NH4HCO3 and 6 M urea in water. Next, 150 μl of 5% Triton X-100 in water, 50 μl of 10% SDS in water, and 1.5 μl of 0.5 M DTT were added. The samples were heated for 15 min at 65 °C. After briefly cooling, 14 μl of 0.5 M iodoacetamide in water was added, and the sample was left in the dark for 45 min. […] The supernatant was diluted to 4 ml with PBS, and 2 ml of PBS containing 100 μl of 50% streptavidin-agarose resin (Thermo Scientific) was added. Biotinylated proteins within the sample were captured over resin overnight at 4 °C with mild agitation. The resin was first washed with 6 ml of 1% SDS in PBS, and then 7 ml of 0.1 M urea in PBS followed by 10 ml of PBS. The resin underwent a final wash with 0.9 ml of 50 mM Tris-HCl and 1 mM CaCl2 in water (pH 8.0) and then resuspended in 200 μl of 50 mM Tris-HCl, 1 mM CaCl2 in water (pH 8.0), and 2 μg of porcine sequencing grade trypsin (Promega). Samples were digested overnight at 37 °C. Samples were then centrifuged at 2,000 × g for 4 min, and digest supernatant was decanted. Beads were washed in 100 μl of PBS centrifuged at 5,200 × g for 5 min, and the wash was combined with the digest supernatant. To the combined sample, trifluoroacetic acid (TFA) was added to 0.4% (v/v) or until pH <2. The sample was desalted with Oasis C18 10-mg columns (Waters) as described previously ([66]). The eluted sample was dried by speed vac and resuspended in 0.1 M HEPES buffer (pH 8.5). […] Appropriate corresponding TMTsixplex^TM-labeled samples were pooled and dried by speed vac. The combined samples were resuspended in 0.5% acetic acid in water and pH-corrected with acetic acid until pH was <2. 40 μg of protein was desalted with C18 stage tips prepared in-house and dried by speed vac.
Samples were resuspended in 10 mM KH2PO4 (pH 2.6), 30% acetonitrile (v/v) in water, and fractionated by off-line strong cation exchange chromatography prior to mass spectrometry (MS) analysis similar to as reported previously ([66]). The full synaptosome proteome control was prepared similarly without TMTsixplex^TM labeling.
All TMT samples were analyzed with three-stage mass spectrometry (MS3) TMTsixplex^TM quantification workflow as described previously ([34]).

[1] = protein P27671 Ras-specific guanine nucleotide-releasing factor 1 (Rasgrf1)
[2] = protein P35762 CD81 antigen (Cd81)
[3] = protein P46096 Synaptotagmin-1 (Syt1)
[4] = protein P50544 Very long-chain specific acyl-CoA dehydrogenase, mitochondrial (Acadvl)
[5] = protein P50571 Gamma-aminobutyric acid receptor subunit beta-1 (Gabrb1)
[6] = protein P56564 Excitatory amino acid transporter 1 (Slc1a3)
[7] = protein P60879 Synaptosomal-associated protein 25 (Snap25)
[8] = protein P61264 Syntaxin-1B (Stx1b)
[9] = protein P62204 Calmodulin (Calm1)
[10] = protein P63328 Serine/threonine-protein phosphatase 2B catalytic subunit alpha isoform (Ppp3ca)
[11] = protein Q2TPA8 Hydroxysteroid dehydrogenase-like protein 2 (Hsdl2)
[12] = protein Q3TXX4 Vesicular glutamate transporter 1 (Slc17a7)
[13] = protein Q3UN02 Lysocardiolipin acyltransferase 1 (Lclat1)
[14] = protein Q4W8U9 Scg2 protein (Scg2)
[15] = protein Q5U458 DnaJ homolog subfamily C member 11 (Dnajc11)
[16] = protein Q7TME0 Lipid phosphate phosphatase-related protein type 4 (Lppr4)
[17] = protein Q7TQ95 Protein lunapark (Lnp)
[18] = protein Q8BFT9 Synaptic vesicle 2-related protein (Svop)
[19] = protein Q8BG39 Synaptic vesicle glycoprotein 2B (Sv2b)
[20] = protein Q8BH59 Calcium-binding mitochondrial carrier protein Aralar1 (Slc25a12)
[21] = protein Q8BH66 Atlastin-1 (Atl1)
[22] = protein Q8BUN9 Protein Slc24a2 (Slc24a2)
[23] = protein Q8BW75 Amine oxidase [flavin-containing] B (Maob)
[24] = protein Q8CGK7 Guanine nucleotide-binding protein G(olf) subunit alpha (Gnal)
[25] = protein Q8K0T0 Reticulon-1 (Rtn1)
[26] = protein Q9CPQ3 Mitochondrial import receptor subunit TOM22 homolog (Tomm22)
[27] = protein Q9CWK8 Sorting nexin-2 (Snx2)
[28] = protein Q9D6J5 NADH dehydrogenase [ubiquinone] 1 beta subcomplex subunit 8, mitochondrial (Ndufb8)
[29] = protein Q9D328 Transmembrane protein 35 (Tmem35)
[30] = protein Q9ERS2 NADH dehydrogenase [ubiquinone] 1 alpha subcomplex subunit 13 (Ndufa13)
[31] = protein Q9ESW4 Acylglycerol kinase, mitochondrial (Agk)
[32] = protein Q9QXV0 ProSAAS (Pcsk1n)
[33] = protein Q9QZM0 Ubiquilin-2 (Ubqln2)
[34] = protein Q9R0K7 Plasma membrane calcium-transporting ATPase 2 (Atp2b2)
[35] = protein Q9Z0V2 Potassium voltage-gated channel subfamily D member 2 (Kcnd2)
[36] = protein Q67BT3 Solute carrier family 13 member 5 (Slc13a5)
[37] = protein Q80X80 C2 domain-containing protein 2-like (C2cd2l)
[38] = protein Q91YQ5 Dolichyl-diphosphooligosaccharide--protein glycosyltransferase subunit 1 (Rpn1)
[39] = protein Q99PU5 Long-chain-fatty-acid--CoA ligase ACSBG1 (Acsbg1)

CC(C)c1cccc(C(C)C)c1O [propofol, 2,6-diisopropylphenol, reference compound]
% propofol protection [1]: 54%
Log2( Mean 'UV/ UV+propofol') [1]: 1.10
% propofol protection (protein P35564 Calnexin (Canx)): 54%
Log2( Mean 'UV/ UV+propofol') (protein P35564 Calnexin (Canx)): 1.07
% propofol protection [2]: 58%
Log2( Mean 'UV/ UV+propofol') [2]: 1.14
% propofol protection [3]: 50%
Log2( Mean 'UV/ UV+propofol') [3]: 0.95
% propofol protection [4]: 51%
Log2( Mean 'UV/ UV+propofol') [4]: 0.99
% propofol protection [5]: 58%
Log2( Mean 'UV/ UV+propofol') [5]: 1.06
Log2( Mean 'UV/ UV+propofol') (protein P56480 ATP synthase subunit beta, mitochondrial (Atp5b)): 1.15
% propofol protection [6]: 56%
Log2( Mean 'UV/ UV+propofol') [6]: 1.10
% propofol protection [7]: 57%
Log2( Mean 'UV/ UV+propofol') [7]: 1.12
% propofol protection [8]: 57%
Log2( Mean 'UV/ UV+propofol') [8]: 1.14
% propofol protection [9]: 53%
Log2( Mean 'UV/ UV+propofol') [9]: 0.97
% propofol protection [10]: 52%
Log2( Mean 'UV/ UV+propofol') [10]: 0.93
% propofol protection [11]: 53%
Log2( Mean 'UV/ UV+propofol') [11]: 1.03
% propofol protection [12]: 57%
Log2( Mean 'UV/ UV+propofol') [12]: 1.15
% propofol protection [13]: 52%
Log2( Mean 'UV/ UV+propofol') [13]: 1.03
% propofol protection [14]: 53%
Log2( Mean 'UV/ UV+propofol') [14]: 0.99
Log2( Mean 'UV/ UV+propofol') (protein Q5IRJ6 Zinc transporter 9 (Slc30a9)): 1.17
% propofol protection [15]: 53%
Log2( Mean 'UV/ UV+propofol') [15]: 0.96
% propofol protection [16]: 57%
Log2( Mean 'UV/ UV+propofol') [16]: 1.08
% propofol protection [17]: 58%
Log2( Mean 'UV/ UV+propofol') [17]: 1.23
% propofol protection [18]: 53%
Log2( Mean 'UV/ UV+propofol') [18]: 0.94
% propofol protection [19]: 50%
Log2( Mean 'UV/ UV+propofol') [19]: 0.94
Log2( Mean 'UV/ UV+propofol') (protein Q8BG51 Mitochondrial Rho GTPase 1 (Rhot1)): 1.18
Log2( Mean 'UV/ UV+propofol') (protein Q8BH24 Transmembrane 9 superfamily member 4 (Tm9sf4)): 1.11
% propofol protection [20]: 50%
Log2( Mean 'UV/ UV+propofol') [20]: 0.98
% propofol protection [21]: 57%
Log2( Mean 'UV/ UV+propofol') [21]: 1.14
% propofol protection [22]: 52%
Log2( Mean 'UV/ UV+propofol') [22]: 1.03
% propofol protection [23]: 56%
Log2( Mean 'UV/ UV+propofol') [23]: 1.10
% propofol protection [24]: 55%
Log2( Mean 'UV/ UV+propofol') [24]: 1.05
% propofol protection [25]: 57%
Log2( Mean 'UV/ UV+propofol') [25]: 1.05
Log2( Mean 'UV/ UV+propofol') (protein Q8VCX5 Calcium uptake protein 1, mitochondrial (Micu1)): 1.09
% propofol protection [26]: 57%
Log2( Mean 'UV/ UV+propofol') [26]: 1.05
% propofol protection [27]: 51%
Log2( Mean 'UV/ UV+propofol') [27]: 1.00
% propofol protection [28]: 57%
Log2( Mean 'UV/ UV+propofol') [28]: 1.23
% propofol protection [29]: 55%
Log2( Mean 'UV/ UV+propofol') [29]: 1.10
% propofol protection [30]: 53%
Log2( Mean 'UV/ UV+propofol') [30]: 0.98
% propofol protection [31]: 58%
Log2( Mean 'UV/ UV+propofol') [31]: 1.18
Log2( Mean 'UV/ UV+propofol') (protein Q9JIG8 PRA1 family protein 2 (Praf2)): 1.23
% propofol protection [32]: 57%
Log2( Mean 'UV/ UV+propofol') [32]: 1.11
% propofol protection [33]: 51%
Log2( Mean 'UV/ UV+propofol') [33]: 0.96
% propofol protection [34]: 51%
Log2( Mean 'UV/ UV+propofol') [34]: 1.00
Log2( Mean 'UV/ UV+propofol') (protein Q9WU79 Proline dehydrogenase 1, mitochondrial (Prodh)): 1.11
% propofol protection [35]: 52%
Log2( Mean 'UV/ UV+propofol') [35]: 1.01
% propofol protection [36]: 57%
Log2( Mean 'UV/ UV+propofol') [36]: 1.13
% propofol protection [37]: 53%
Log2( Mean 'UV/ UV+propofol') [37]: 1.04
% propofol protection [38]: 55%
Log2( Mean 'UV/ UV+propofol') [38]: 1.11
% propofol protection [39]: 58%
Log2( Mean 'UV/ UV+propofol') [39]: 1.12
Log2( Mean 'UV/ UV+propofol') (protein Q925I1 ATPase family AAA domain-containing protein 3 (Atad3)): 1.17
